Measurements: patent publication US10770169B2, “Method of providing a treatment to a subject based on a dynamic pathway map” (THE REGENTS OF THE UNIVERSITY OF CALIFORNIA, priority 2010, dated 2020)
Read-outs that look alike come from different tables or passages of the source.

Assays:
[1] = system: luminal, basal, claudin-low and ERBB2AMP breast cancer cell lines; experiment: Associations of clinically relevant subtypes and response (non-parametric ANOVA or t-test on GI50 ranks); type: cell-based, human; settings: for Subtype specificity: Table 6, most sensitive subtype, FDR p<0.20
Excerpt: A central premise of this study is that associations between responses and molecular subtypes observed in preclinical cell line analyses will be recapitulated in the clinic in instances where the predictive molecular features in the cell lines are mirrored in human tumors. We established response-subtype associations by using non-parametric ANOVAs to compare […] values across transcriptional and genomics subtypes.
Differences between GI50s of the groups were compared with a non-parametric ANOVA or t-test, as appropriate, on the ranks. We combined the p-values for the three sets of tests and used false discovery rate (FDR) to correct for multiple testing. For the three-sample test, we performed a post-hoc analysis on the compounds with a significant class effect by comparing each group to all others to determine which group was most sensitive. The p-values for the post-hoc test were FDR-corrected together. In all cases, FDR p<0.20 was deemed significant. […] Analyses were performed in R.

[2] = system: panel of 55 breast cancer cell lines; experiment: Cell growth inhibition assay (Cell Titer Glo, 72 h, 9 doses; GI50, TGI, LC50); type: cell-based, human; settings: Homo sapiens, read-out: GI50 (converted)

For `CN(C)C/C=C/C(=O)Nc1cc2c(Nc3ccc(F)c(Cl)c3)ncnc2cc1O[C@H]1CCOC1` [BIBW 2992], the “association of response with ERBB2 amplification” value [1] was “positively associated with ERBB2 amplification”, the Subtype specificity [1] was “ERBB2AMP” and the GI50 ([2]; BT-20, BT20 cell line, censored GI50 values) was 2750 nM. The GI50 ([2]; BT-20, cell line BT20) was 2750 nM, the GI50 ([2]; BT-474, BT474 cell line, censored GI50 values) was 5.89 nM and the GI50 ([2]; BT-474, cell line BT474) was 5.89 nM. The GI50 ([2]; BT-483, BT483 cell line, censored GI50 values) was 1660 nM, the GI50 ([2]; BT-483, cell line BT483) was 1660 nM and the GI50 ([2]; CAMA-1, CAMA1 cell line, censored GI50 values) was 2240 nM. It also gave a GI50 ([2]; CAMA-1, cell line CAMA1) of 2240 nM, a GI50 ([2]; HCC38, HCC38 cell line, censored GI50 values) of 1820 nM and a GI50 ([2]; HCC38, cell line HCC38) of 1820 nM. It also gave a GI50 ([2]; HCC70, HCC70 cell line, censored GI50 values) of 468 nM, a GI50 ([2]; HCC70, cell line HCC70) of 468 nM and a GI50 ([2]; HCC1143, HCC1143 cell line, censored GI50 values) of 1380 nM. The GI50 ([2]; HCC1143, cell line HCC1143) was 1380 nM, the GI50 ([2]; HCC1419, HCC1419 cell line, censored GI50 values) was 2.95 nM and the GI50 ([2]; HCC1419, cell line HCC1419) was 2.95 nM. The GI50 ([2]; HCC1428, HCC1428 cell line, censored GI50 values) was 1740 nM, the GI50 ([2]; HCC1428, cell line HCC1428) was 1740 nM and the GI50 ([2]; HCC1500, HCC1500 cell line, censored GI50 values) was 339 nM. The GI50 ([2]; HCC1500, cell line HCC1500) was 339 nM, the GI50 ([2]; HCC1806, HCC1806 cell line, censored GI50 values) was 537 nM and the GI50 ([2]; HCC1806, cell line HCC1806) was 537 nM. It also gave a GI50 ([2]; HCC1937, HCC1937 cell line, censored GI50 values) of 2090 nM, a GI50 ([2]; HCC1937, cell line HCC1937) of 2090 nM and a GI50 ([2]; HCC1954, HCC1954 cell line, censored GI50 values) of 123 nM. The GI50 ([2]; HCC1954, cell line HCC1954) was 123 nM, the GI50 ([2]; HCC2185 cell line, censored GI50 values) was 1380 nM and the GI50 ([2]; MDA-MB-134-VI, MDAMB134VI cell line, censored GI50 values) was 3630 nM. The GI50 ([2]; MDA-MB-175-VII, MDAMB175VII cell line, censored GI50 values) was 4.47 nM, the GI50 ([2]; MDA-MB-436, MDAMB436 cell line, censored GI50 values) was 3720 nM and the GI50 ([2]; MDA-MB-436, cell line MDAMB436) was 3720 nM. The GI50 ([2]; MDA-MB-453, MDAMB453 cell line, censored GI50 values) was 91.2 nM, the GI50 ([2]; MDA-MB-453, cell line MDAMB453) was 91.2 nM and the GI50 ([2]; MDA-MB-468, MDAMB468 cell line, censored GI50 values) was 631 nM. The GI50 ([2]; MDA-MB-468, cell line MDAMB468) was 631 nM, the GI50 ([2]; SK-BR-3, SKBR3 cell line, censored GI50 values) was 13.2 nM and the GI50 ([2]; SK-BR-3, cell line SKBR3) was 13.2 nM. The GI50 ([2]; SUM52PE, SUM52PE cell line, censored GI50 values) was 3390 nM, the GI50 ([2]; SUM52PE, cell line SUM52PE) was 3390 nM and the GI50 ([2]; SUM149PT, SUM149PT cell line, censored GI50 values) was 74.1 nM. It also gave a GI50 ([2]; SUM149PT, cell line SUM149PT) of 74.1 nM, a GI50 ([2]; SUM185PE, SUM185PE cell line, censored GI50 values) of 5620 nM and a GI50 ([2]; SUM185PE, cell line SUM185PE) of 5620 nM. It also gave a GI50 ([2]; SUM225CWN, SUM225CWN cell line, censored GI50 values) of 9.33 nM, a GI50 ([2]; SUM225CWN, cell line SUM225CWN) of 9.33 nM and a GI50 ([2]; SUM1315MO2, SUM1315MO2 cell line, censored GI50 values) of 162 nM. The GI50 ([2]; SUM-159-PT, SUM159PT cell line, censored GI50 values) was 2570 nM, the GI50 ([2]; SUM-159-PT, cell line SUM159PT) was 2570 nM and the GI50 ([2]; UACC-812, UACC812 cell line, censored GI50 values) was 2.82 nM. The GI50 ([2]; UACC-812, cell line UACC812) was 2.82 nM, the GI50 ([2]; ZR-75-1, ZR751 cell line, censored GI50 values) was 2340 nM and the GI50 ([2]; ZR-75-1, cell line ZR751) was 2340 nM. It also gave a GI50 ([2]; ZR-75B, ZR75B cell line, censored GI50 values) of 3020 nM, a GI50 ([2]; ZR-75B, cell line ZR75B) of 3020 nM and a GI50 ([2]; cell line HCC2185) of 1380 nM. It also gave a GI50 ([2]; cell line MDAMB134V) of 3630 nM, a GI50 ([2]; cell line MDAMB175V) of 4.47 nM and a GI50 ([2]; cell line SUM1315MO) of 162 nM.

`COc1cc2ncnc(Nc3ccc(F)c(Cl)c3)c2cc1OCCCN1CCOCC1` [Gefitinib] was tested, and the “association of response with ERBB2 amplification” value [1] was “positively associated with ERBB2 amplification”, the Subtype specificity [1] was “ERBB2AMP” and the GI50 ([2]; AU565, cell line AU565) was 1070 nM. It also gave a GI50 ([2]; BT-474, cell line BT474) of 724 nM, a GI50 ([2]; BT-483, cell line BT483) of 6170 nM and a GI50 ([2]; BT-549, cell line BT549) of 15100 nM. For the same compound, the GI50 ([2]; CAMA-1, cell line CAMA1) was 26900 nM, the GI50 ([2]; HCC38, cell line HCC38) was 28200 nM and the GI50 ([2]; HCC70, cell line HCC70) was 17400 nM. For the same compound, the GI50 ([2]; HCC1143, cell line HCC1143) was 11700 nM, the GI50 ([2]; HCC1187, cell line HCC1187) was 30200 nM and the GI50 ([2]; HCC1395, cell line HCC1395) was 7080 nM. For the same compound, the GI50 ([2]; HCC1419, cell line HCC1419) was 2750 nM, the GI50 ([2]; HCC1428, cell line HCC1428) was 10700 nM and the GI50 ([2]; HCC1500, cell line HCC1500) was 8130 nM. The GI50 ([2]; HCC1806, cell line HCC1806) was 4680 nM, the GI50 ([2]; HCC1937, cell line HCC1937) was 8320 nM and the GI50 ([2]; HCC1954, cell line HCC1954) was 2040 nM. It also gave a GI50 ([2]; MCF7, cell line MCF7) of 26900 nM, a GI50 ([2]; MDA-MB-157, cell line MDAMB157) of 15100 nM and a GI50 ([2]; MDA-MB-231, cell line MDAMB231) of 33100 nM. For the same compound, the GI50 ([2]; MDA-MB-361, cell line MDAMB361) was 6460 nM, the GI50 ([2]; MDA-MB-415, cell line MDAMB415) was 7410 nM and the GI50 ([2]; MDA-MB-436, cell line MDAMB436) was 33100 nM. For the same compound, the GI50 ([2]; MDA-MB-453, cell line MDAMB453) was 7410 nM, the GI50 ([2]; MDA-MB-468, cell line MDAMB468) was 25100 nM and the GI50 ([2]; SK-BR-3, cell line SKBR3) was 2820 nM. It also gave a GI50 ([2]; SUM52PE, cell line SUM52PE) of 7940 nM, a GI50 ([2]; SUM149PT, cell line SUM149PT) of 2880 nM and a GI50 ([2]; SUM185PE, cell line SUM185PE) of 20900 nM. The GI50 ([2]; SUM-159-PT, cell line SUM159PT) was 8510 nM, the GI50 ([2]; T47D, cell line T47D) was 15800 nM and the GI50 ([2]; UACC-893, cell line UACC893) was 1150 nM. For the same compound, the GI50 ([2]; ZR-75-1, cell line ZR751) was 32400 nM, the GI50 ([2]; ZR-75B, cell line ZR75B) was 21400 nM and the GI50 ([2]; cell line 600MPE) was 7240 nM. The GI50 ([2]; cell line HCC2185) was 9330 nM, the GI50 ([2]; cell line HCC3153) was 33100 nM and the GI50 ([2]; cell line LY2) was 27500 nM. The GI50 ([2]; cell line MDAMB134V) was 30200 nM, the GI50 ([2]; cell line MDAMB175V) was 209 nM and the GI50 ([2]; cell line SUM1315MO) was 2950 nM.
